In patent US9686984B2, “Macrocyclic picolinamides as fungicides” (DOW AGROSCIENCES LLC, priority 2014, dated 2017):
Where two headings read alike, the source gives them in different places.

Assays:
Format in all cases: in vivo
Erysiphe cichoracearum = assay: Powdery Mildew of Cucumber (ERYSCI) disease control; conditions: 100 ppm, 1 Day Protectant
Description: Technical grades of materials were dissolved in acetone, which were then mixed with nine volumes of water containing 110 ppm Triton X-100. The fungicide solutions were applied onto wheat seedlings using an automated booth sprayer to run-off. All sprayed plants were allowed to air dry prior to further handling. All fungicides were evaluated using the aforementioned method for their activity vs. all target diseases, unless stated otherwise. Wheat leaf blotch and brown rust activity were also evaluated using track spray applications, in which case the fungicides were formulated as EC formulations, containing 0.1% Trycol 5941 in the spray solutions. Wheat plants (variety Yuma) were grown from seed in a greenhouse in 50% mineral soil/50% soil-less Metro mix until the first leaf was fully emerged, with 7-10 seedlings per pot. These plants were inoculated with an aqueous spore suspension of Septoria tritici either prior to or after fungicide treatments. After inoculation the plants were kept in 100% relative humidity (one day in a dark dew chamber followed by two to three days in a lighted dew chamber at 20° C.) to permit spores to germinate and infect the leaf. The plants were then transferred to a greenhouse set at 20° C. for disease to develop. When disease symptoms were fully expressed on the 1st leaves of untreated plants, infection levels were assessed on a scale of 0 to 100 percent disease severity. Percent disease control was calculated using the ratio of disease severity on treated plants relative to untreated plants. Example F: Evaluation of Fungicidal Activity: Powdery Mildew of Cucumber (Erysiphe cichoracearum; Bayer Code […]) Cucumber seedlings (variety Bush Pickle) were grown in soil-less Metro mix, with one plant per pot, and used in the test when 12 to 14 days old. Plants were inoculated with a spore suspension 24 hr following fungicide treatments. After inoculation the plants remained in the greenhouse set at 20° C. until disease was fully expressed. […]

Rhyncosporium secalis = assay: Barley Scald (RHYNSE) disease control; conditions: 100 ppm, 1 Day Protectant
Description: Technical grades of materials were dissolved in acetone, which were then mixed with nine volumes of water containing 110 ppm Triton X-100. The fungicide solutions were applied onto wheat seedlings using an automated booth sprayer to run-off. All sprayed plants were allowed to air dry prior to further handling. All fungicides were evaluated using the aforementioned method for their activity vs. all target diseases, unless stated otherwise. Wheat leaf blotch and brown rust activity were also evaluated using track spray applications, in which case the fungicides were formulated as EC formulations, containing 0.1% Trycol 5941 in the spray solutions. Wheat plants (variety Yuma) were grown from seed in a greenhouse in 50% mineral soil/50% soil-less Metro mix until the first leaf was fully emerged, with 7-10 seedlings per pot. These plants were inoculated with an aqueous spore suspension of Septoria tritici either prior to or after fungicide treatments. After inoculation the plants were kept in 100% relative humidity (one day in a dark dew chamber followed by two to three days in a lighted dew chamber at 20° C.) to permit spores to germinate and infect the leaf. The plants were then transferred to a greenhouse set at 20° C. for disease to develop. When disease symptoms were fully expressed on the 1st leaves of untreated plants, infection levels were assessed on a scale of 0 to 100 percent disease severity. Percent disease control was calculated using the ratio of disease severity on treated plants relative to untreated plants. Example K: Evaluation of Fungicidal Activity: Barley Scald (Rhyncosporium secalis; Bayer Code […]) Barley seedlings (variety Harrington) were propagated in soil-less Metro mix, with each pot having 8 to 12 plants, and used in the test when first leaf was fully emerged. Test plants were inoculated by an aqueous spore suspension of Rhyncosporium secalis 24 hr after fungicide treatments. After inoculation the plants were kept in a dew room at 20° C. with 100% relative humidity for 48 hr. […]

Zymoseptoria tritici = assay: Leaf Blotch of Wheat (SEPTTR) disease control on wheat seedlings; conditions: for pest or weed control at 121.5 g/ha: Low Volume (121.5 g/H); for pest or weed control at 100 µg/mL: High Volume (100 ppm)
In short: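 Compounds in acetone/water (1:9, 110 ppm Triton X-100) sprayed to run-off on Yuma wheat seedlings at first-leaf stage, with Septoria tritici spores inoculated before or after treatment. Plants held at 100% RH (dark then lighted dew chamber, 20° C), then in greenhouse at 20° C; % control from disease severity on 1st leaves versus untreated.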

Uncinula necator = assay: Grape Powdery Mildew (UNCINE) disease control; conditions: 100 ppm, 1 Day Protectant
Venturia inaequalis = assay: Apple Scab (VENTIN) disease control; conditions: 100 ppm, 1 Day Protectant
Phakopsora pachyrhizi = assay: Asian Soybean Rust (PHAKPA) disease control; conditions: 25 ppm
Description: Example H: Evaluation of Fungicidal Activity: Asian Soybean Rust (Phakopsora pachyrhizi; Bayer Code […]) Technical grades of materials were dissolved in acetone, which were then mixed with nine volumes of water containing 0.011% Tween 20. The fungicide solutions were applied onto soybean seedlings using an automated booth sprayer to run-off. All sprayed plants were allowed to air dry prior to further handling. Soybean plants (variety Williams 82) were grown in soil-less Metro mix, with one plant per pot. Two weeks old seedlings were used for testing. Plants were inoculated either 3 days prior to or 1 day after fungicide treatments. Plants were incubated for 24 h in a dark dew room at 22° C. and 100% relative humidity then transferred to a growth room at 23° C. for disease to develop. Disease severity was assessed on the sprayed leaves.

[1] = 24 h, 1 Day Protectant, read-out: SEPTTR disease control, 1 DP
[2] = 72 h, 3 Day Curative, read-out: SEPTTR disease control, 3 DC

| SMILES | ERYSCI disease control, 1DP (Erysiphe cichoracearum) | RHYNSE disease control, 1DP (Rhyncosporium secalis) | pest or weed control at 121.5 g/ha (Zymoseptoria tritici; [1]) [%] | pest or weed control at 121.5 g/ha (Zymoseptoria tritici; [2]) [%] | UNCINE disease control, 1DP (Uncinula necator) | VENTIN disease control, 1DP (Venturia inaequalis) | PHAKPA disease control, 1DP (Phakopsora pachyrhizi; 1 Day Protectant) | PHAKPA disease control, 3DC (Phakopsora pachyrhizi; 3 Day Curative) | pest or weed control at 100 µg/mL (Zymoseptoria tritici; [1]) [%] | pest or weed control at 100 µg/mL (Zymoseptoria tritici; [2]) [%] |
| --- | --- | --- | --- | --- | --- | --- | --- | --- | --- | --- |
| COc1ccnc(C(=O)N[C@H]2CCO[C@H](Cc3ccccc3)[C@@H](Cc3ccccc3)[C@H](C)OC2=O)c1OC(C)=O [Compound 3] | B (≦70) | B (≦70) | > 70 | > 70 |  |  |  |  |  |  |
| CCC[C@H]1OCC[C@H](NC(=O)c2nccc(OC)c2OCOC(C)=O)C(=O)O[C@@H](C)[C@@H]1Cc1ccccc1 [Compound 17] | B (≦70) | B (≦70) | > 70 | > 70 | A (>70) | B (≦70) | A (>70) | A (>70) | > 70 | > 70 |
| CCCC[C@H]1OCC[C@H](NC(=O)c2nccc(OC)c2OC(C)=O)C(=O)O[C@@H](C)[C@@H]1Cc1ccccc1 [Compound 2] | B (≦70) | A (>70) | > 70 | > 70 |  |  |  |  |  |  |
